# Legend:
# [1] = Cytotoxic effect on the murine spleen cells, trypane-blue dye exclusion; format: cell-based; details: mouse, spleen cells, 48 hours, 86 at 0
# Protocol: (§1) Cytotoxic effect on the murine spleen cells 1×10^6 /ml murine spleen cells in RPMI-1640 medium supplemented with 5% fetal calf serum were incubated with a varied concentration of N-(p-hydroxyphenyl)-L-glutamine for 48 hours at 37° C. And then the viability of the cells was determined by the trypane-blue dye exclusion test.
# murine spleen cells = test: as above; format: cell-based; details: within the range of the concentration tested
# Protocol: as §1
# skin allograft = test: Prolongation of the skin allograft in rat (Fisher to Wister/MK); format: in vivo; details: 25 mg/kg intraperitoneally everyday from day -7 until rejection; controls 9.0±1.6 days
# Protocol: Prolongation of the skin allograft in rat Wister/MK rats received skin allografts from Fisher rats on day 0.
# Recipient rats in the treatment group were administered intraperitoneally 25 mg/kg of N-(p-hydroxyphenyl)-L-glutamine dissolved in a phosphate buffer everyday from day - 7 until the day on which the rejection was observed. Rats treated with the compound rejected their grafts in 15.0±1.7 days, while controls rejected in 9.0±1.6 days.
# [2] = test system: plaque forming cells in the spleen; test: Plaque forming cells in the spleen of mice immunized with sheep blood cells (modified Cunningham's method); format: in vivo, mice (ddY); details: for PFC (No. of PFC ± S.E.): 5 animals, day 4, untreated 163 ± 64
# mice = test: Acute toxicity (mortality 7 days after intraperitoneal administration); format: in vivo
# Source text: (§2) The varied doses of N-(p-hydroxyphenyl)-L-glutamine in an aqueous 5% sodium carboxymethyl cellulose solution were intraperitoneally administered to the mice. The mortality 7 days after the administration was as follows: […]
# [3] = as above; format: in vivo, mice; details: mouse, in vivo, ip, mice, intraperitoneal
# Source text: as §2
# [4] = test system: Adjuvant arthritis in rats; test: Adjuvant arthritis in rats (hind foot volume); format: in vivo, Sprague-Dawley rats; details: day 1 until day 21
# Protocol: Effect of N-(p-hydroxyphenyl)-L-glutamine on Adjuvant arthritis in rats
# Sprague-Dawley rats weighing 150 to 180 g were randomized in 6 groups and kept in a controlled evironment for 2 weeks prior to use. They were fed a standard diet and were allowed to drink water freely ad libitum.
# On day 0, each rat was injected in the planter region of the right hind paw with 0.05 ml Freund's Complete Adjuvant containing 6 mg/ml of heat killed Mycobacterium butyricum (Difco) in sterile paraffin oil.
# The volume of the injected (right) and non-injected (left) feet up to a mark on the tibio-tarsal joint was measured by water over-flow method.
# The sensitized rats were dosed subcutaneously from day 1 until day 21 with either 12.5, 25, or 50 mg/kg of N-(p-hydroxyphenyl)-L-glutamine (γ-GHB), 2.5 mg/kg of prednisolone, and vehicle for control group.
# [5] = test system: nucleated cells in the spleen; test: Total number of nucleated cells in the spleen of immunized mice; format: in vivo, mice (ddY); details: for Number of nucleated cells (No. of lymphocytes ± S.E.): 5 animals, day 4, untreated 228 ± 18.8
# Protocol: Effect of N-(p-hydroxyphenyl)-L-glutamine on the total number of nucleated cells and the plaque forming cells in the spleen
# The mice (ddY, 18 to 21 g) were intraperitoneally immunized with 1×10^8 sheep blood cells. The N-(p-hydroxyphenyl)-L-glutamine was administered subcutaneously on day 0, 1, 2 and 3. On day 4, the mice were sacrificed and the plaque forming cells in the spleen were determined according to the modified Cunningham's method (H. Fujiwara et al.; Experimental Method of Immunology Vol. 5, 1475 (1975)).
# Total number of the nucleated cells in the spleen were counted after lysing erythrocytes with 0.5% acetic acid.
# human lymphocytes = test: Inhibition of blastogenesis of human lymphocytes induced by phytohemagglutinin (PHA), 3H-thymidine uptake; format: cell-based; details: for % Inhibition (3H-thymidine uptake by PHA-stimulated lymphocytes): 72 hours
# Protocol: Inhibition of the blastogenesis of the human lymphocytes induced by phytohemagglutinin (PHA)
# 1.5×10^5 human lymphocytes in RPMI-1 640 medium (produced by GIBCO) supplemented with 10 wt. % fetal calf serum were incubated with 0.1 μl of PHA and in the presence or absence of N-(p-hydroxyphenyl)-L-glutamine (total volume: 0.1 ml) in a CO2 incubator at 37° C. for 72 hours. 0.1 μCi of ^3 H-thymidine was pulsed 7 hour before harvesting the cells. The lymphocytes were harvested and the radioactivity incorporated into the cells were counted.
# Daudi cells = test: Growth inhibition of tissue-culture cells (Daudi cells), trypane blue dye exclusion; format: cell-based, human
# Protocol: Growth inhibition of tissue-culture cells
# 2.6×10^5 /ml tissue culture cells (Daudi cells) derived from human lymphocytes in RPMI-1640 medium supplemented with 10% fetal calf serum were incubated with varied concentration of N-(p-hydroxyphenyl)-L-glutamine for 72 hours at 37° C. The number of live cells was determined by the trypane blue dye exclusion test.
# [6] = 50 mg/kg subcutaneously on day 0, 1, 2 and 3
# [7] = 100 mg/kg subcutaneously on day 0, 1, 2 and 3
# [8] = 12.5, 25 or 50 mg/kg subcutaneously
structure (smiles),measurement,setting,value
N[C@@H](CCC(=O)Nc1ccc(O)cc1)C(=O)O,viability at 48 h,[1]; concentration 10 (unit inferred),83%
same,viability at 48 h,[1]; concentration 100 (unit inferred),87%
same,cytotoxic effect on the murine spleen cells (in words),murine spleen cells,did not exhibit any cytotoxic effect
same,time to rejection of skin graft,skin allograft,15.0 ± 1.7 days
same,production of plaque forming cells (in words),[2]; 50 mg/kg,significantly inhibited
same,PFC (No. of PFC ± S.E.),[2]; [6],65.6 ± 9.5 × 10^3 /spleen
same,PFC (No. of PFC ± S.E.),[2]; [7],65.3 ± 14.0 × 10^3 /spleen
same,No. of dead mice/No. of treated mice,mice; 1.768 g/kg intraperitoneally,0/5
same,No. of dead mice/No. of treated mice,mice; 2.5 g/kg intraperitoneally,0/5
same,No. of dead mice/No. of treated mice,mice; 3.535 g/kg intraperitoneally,1/5
same,No. of dead mice/No. of treated mice,mice; 5 g/kg intraperitoneally,2/5
same,No. of dead mice/No. of treated mice,mice; 10 g/kg intraperitoneally,1/1
same,LD50 at 168 h,[3],> 5000 mg/kg
same,left (non-injected) hind foot swelling (in words),[4]; [8],reduced significantly
same,right (injected) hind foot swelling (in words),[4]; [8],reduced significantly
same,total number of the nucleated cells in the spleen (in words),[5]; 50 mg/kg,did not affect
same,Number of nucleated cells (No. of lymphocytes ± S.E.),[5]; [6],176 ± 13.7 × 10^6 /spleen
same,Number of nucleated cells (No. of lymphocytes ± S.E.),[5]; [7],226 ± 39.1 × 10^6 /spleen
same,inhibition of PHA-induced blastogenesis (in words),human lymphocytes; 40 μg/ml,complete inhibition
same,"inhibition of PHA-induced blastogenesis, delayed addition (in words)","human lymphocytes; 40 μg/ml added 0, 12, 24 and 48 hours after PHA stimulation",almost complete inhibition
same,% Inhibition (3H-thymidine uptake by PHA-stimulated lymphocytes),human lymphocytes; 0.04 μ/ml,14%
same,% Inhibition (3H-thymidine uptake by PHA-stimulated lymphocytes),human lymphocytes; 0.4 μ/ml,27%
same,% Inhibition (3H-thymidine uptake by PHA-stimulated lymphocytes),human lymphocytes; 4 μ/ml,67%
same,% Inhibition (3H-thymidine uptake by PHA-stimulated lymphocytes),human lymphocytes; 40 μ/ml,99%
same,inhibition at 40 µg/mL,"Daudi cells; Homo sapiens, Daudi, 40 μg/ml",~90%
same,live cell growth (% of control) at 400 µg/mL,"Daudi cells; Homo sapiens, Daudi, 400 μg/ml, 72 hours, read-out: Inhibition (%) (Control equals 100)",0%
same,growth inhibition with delayed addition (in words),Daudi cells; addition delayed from 24 hours to 48 hours after start of incubation,gradually decreased
same,growth inhibition with exposure for first 24 hours only (in words),Daudi cells; present for first 24 hours of 72 hours incubation,did not exhibit any growth inhibition
"Sc1ncnc2nc[nH]c12 [6-Mercaptopurine, reference compound]",PFC (No. of PFC ± S.E.),[2]; 25 mg/kg,18.8 ± 7.9 × 10^3 /spleen
same,Number of nucleated cells (No. of lymphocytes ± S.E.),[5]; 25 mg/kg,78 ± 9.5 × 10^6 /spleen
"C[C@]12C=CC(=O)C=C1CC[C@@H]1[C@@H]2[C@@H](O)C[C@@]2(C)[C@H]1CC[C@]2(O)C(=O)CO [prednisolone, reference compound]",left (non-injected) hind foot swelling (in words),[4]; 2.5 mg/kg subcutaneously,reduced significantly
same,right (injected) hind foot swelling (in words),[4]; 2.5 mg/kg subcutaneously,reduced significantly

# — patent US4180588A, “Immunosuppressant” (Mitsubishi Chemical Industries, Ltd., priority 1977, dated 1979)
